For orientation: IC50 means the concentration at which inhibition is half-maximal.

Structures are written as SMILES.

The assay deals with T1, Human P2X7 (hP2X7) receptor (Homo sapiens, UniProt Q99572).
T1 construct: myc-His (from the pcDNA3.1/myc-HisA vector); expressed in transfected cells
T1 sequence (Q99572 1-595): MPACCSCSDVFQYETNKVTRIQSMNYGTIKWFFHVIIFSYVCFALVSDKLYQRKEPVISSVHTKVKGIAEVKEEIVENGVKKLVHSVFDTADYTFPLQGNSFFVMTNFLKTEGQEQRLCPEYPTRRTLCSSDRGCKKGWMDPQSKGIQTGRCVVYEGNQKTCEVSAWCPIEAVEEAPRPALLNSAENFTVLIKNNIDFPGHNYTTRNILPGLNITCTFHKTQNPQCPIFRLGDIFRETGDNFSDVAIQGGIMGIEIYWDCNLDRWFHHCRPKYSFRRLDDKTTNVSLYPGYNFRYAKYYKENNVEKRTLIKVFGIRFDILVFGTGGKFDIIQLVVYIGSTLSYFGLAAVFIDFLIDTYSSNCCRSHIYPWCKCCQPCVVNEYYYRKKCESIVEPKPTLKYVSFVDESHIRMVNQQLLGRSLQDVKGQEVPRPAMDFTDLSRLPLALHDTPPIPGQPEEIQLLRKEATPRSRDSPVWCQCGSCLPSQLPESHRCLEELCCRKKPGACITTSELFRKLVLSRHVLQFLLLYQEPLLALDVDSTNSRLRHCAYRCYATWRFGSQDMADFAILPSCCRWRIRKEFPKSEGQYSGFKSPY
Nature of the assay: Dye assay: BzATP-induced Yo-Pro-1 uptake in HEK293 cells stably expressing hP2X7. Format: cell-based. To be noted: BzATP (0.1 mM)-induced Yo-Pro-1 uptake, compounds 30 min pre-treatment, 90 min incubation. An excerpt:
Human P2X7 (hP2×7) was cloned from a normal human brain total RNA library by reverse transcription (using SuperScript II (Invitrogen)) and PCR (using KOD-plus-(TOYOBO)). PCR primers were designed according to hP2X7 sequence registered in GENBANK with a putative amino acid sequence consisting of 595 amino acid residues. The PCR fragments were inserted into pcDNA3.1/myc-HisA vector (Invitrogen) and sequenced for confirmation.
HEK293 cells were transfected with hP2×7/pcDNA3.1/myc-HisA by lipofection, and 1 day later, the cells were treated with 1 mg/mL G418, and resistant cells were selected by appropriately dilution. The resistant cells were cloned by reseeding at a low density.
P2X7 receptor antagonists were screened by a dye uptake assay using HEK293 cells stably expressing hP2×7. Cells were plated on a type I collagen-coated black/clear bottom 96-well plate at 20000 cells/well and a day later, treated with varying concentrations of various test compounds for 30 minutes, then treated with a dye (Yo-Pro-1) (final concentration 2 μM) and BzATP (final concentration 0.1 mM) and incubated for 90 minutes. Then, the fluorescence (indicating the BzATP-induced Yo-Pro-1 uptake mediated by the P2X7 receptor) was measured with a microplate reader (excitation wavelength: 485 nm, emission wavelength: 535 nm). The % inhibition rates were calculated and plotted against the logarithms of the concentrations to determine IC50.
As to `CC(C)NC(=O)Cn1ncc(N[C@@H]2C[C@@H]3C[C@H]([C@H]2C)C3(C)C)c(Br)c1=O` [compound 2], the IC50 came out at 51 nM.

As to `C[C@@H]1[C@H]2C[C@@H](C[C@H]1Nc1cnn(CC(=O)NCCc3ccccc3)c(=O)c1Br)C2(C)C` [compound 6], the concentration for half-maximal inhibition (IC50) amounted to 86 nM. `C[C@@H]1[C@H]2C[C@@H](C[C@H]1Nc1cnn(CC(=O)NCc3cccnc3)c(=O)c1Br)C2(C)C` [compound 12]: the half-maximal inhibitory concentration (IC50) turned out to be 20 nM. For the compound `C[C@@H]1[C@H]2C[C@@H](C[C@H]1Nc1cnn(CC(=O)NCc3cnccn3)c(=O)c1Br)C2(C)C` [compound 14], the IC50 turned out to be 21 nM. `C[C@@H]1[C@H]2C[C@@H](C[C@H]1Nc1cnn(CC(=O)NC3CC3)c(=O)c1Br)C2(C)C` [compound 19]: the IC50 stood at 38 nM. Regarding `CC(NC(=O)Cn1ncc(N[C@@H]2C[C@@H]3C[C@H]([C@H]2C)C3(C)C)c(Br)c1=O)c1ccccc1` (some centres unmarked) [compound 23], the half-inhibitory concentration (IC50) is 34 nM. Take `C[C@@H]1[C@H]2C[C@@H](C[C@H]1NC(=O)Cn1ncc(N[C@@H]3C[C@@H]4C[C@H]([C@H]3C)C4(C)C)c(Br)c1=O)C2(C)C` [compound 32]: the IC50 turned out to be 63 nM. The figure for `O=C(Cn1ncc(NC23CC4CC(CC(C4)C2)C3)c(Br)c1=O)NCc1ccncc1` [compound 51] is 16 nM; for `CC1(C)[C@H]2CC[C@@H](CNc3cnn(CC(=O)NCc4ccncc4)c(=O)c3Br)[C@@H]1C2` [compound 54] it is 26 nM. On to `O=C(Cn1ncc(NCC23CC4CC(CC(C4)C2)C3)c(Br)c1=O)NCc1ccncc1` [compound 60], for which the IC50 was 71 nM.

With `CC1(C)C2CCC1(C)C(Nc1cnn(CC(=O)NCc3ccncc3)c(=O)c1Br)C2` (centres unmarked) [compound 61], the half-maximal inhibitory concentration (IC50) amounted to 41 nM. As to `O=C(Cn1ncc(NC2C3CC4CC(C3)CC2C4)c(Br)c1=O)NCc1ccncc1` (centres unmarked) [compound 74], the half-inhibitory concentration (IC50) stood at 22 nM.

Consider `C[C@@H]1[C@H]2C[C@@H](C[C@H]1Nc1cnn(CC(=O)Nc3cccc([N+](=O)[O-])c3)c(=O)c1Br)C2(C)C` [compound 79], for which the concentration for half-maximal inhibition (IC50) was found to be 46 nM.

Take `C[C@@H]1[C@H]2C[C@@H](C[C@H]1Nc1cnn(Cc3ccccn3)c(=O)c1Br)C2(C)C` [compound 87]: the 50% inhibitory concentration (IC50) stood at 62 nM. For the compound `C[C@@H]1[C@H]2C[C@@H](C[C@H]1Nc1cnn(CC(=O)Nc3ccc4c(c3)C(=O)N(C)C4=O)c(=O)c1Br)C2(C)C` [compound 88], the IC50 is 44 nM. Turning to `COc1cc(OC)nc(Cn2ncc(N[C@@H]3C[C@@H]4C[C@H]([C@H]3C)C4(C)C)c(Br)c2=O)n1` [compound 89], the IC50 worked out at 35 nM. Regarding `C[C@@H]1[C@H]2C[C@@H](C[C@H]1Nc1cnn(CC(=O)Nc3ccc(N(C)C)cc3)c(=O)c1Br)C2(C)C` [compound 94], the half-maximal inhibitory concentration (IC50) stood at 64 nM. Consider `C[C@@H]1[C@H]2C[C@@H](C[C@H]1Nc1cnn(CC(=O)NCc3ccnc(Cl)c3)c(=O)c1Br)C2(C)C` [compound 99], for which the IC50 was found to be 39 nM. For `COc1cc(CNC(=O)Cn2ncc(N[C@@H]3C[C@@H]4C[C@H]([C@H]3C)C4(C)C)c(Br)c2=O)on1` [compound 100], the IC50 is 54 nM.

Consider `C[C@@H]1[C@H]2C[C@@H](C[C@H]1Nc1cnn(CC(=O)NCc3ccncn3)c(=O)c1Br)C2(C)C` [compound 103], for which the IC50 amounted to 14 nM.

`COc1cc(CNC(=O)Cn2ncc(N[C@@H]3C[C@@H]4C[C@H]([C@H]3C)C4(C)C)c(Br)c2=O)ccn1` [compound 104]: the 50% inhibitory concentration (IC50) was 57 nM. In the case of `C[C@@H]1[C@H]2C[C@@H](C[C@H]1Nc1cnn(CC(=O)NCc3cscn3)c(=O)c1Br)C2(C)C` [compound 106] it was 44 nM; in that of `C[C@@H]1[C@H]2C[C@@H](C[C@H]1Nc1cnn(CC(=O)NCc3ccno3)c(=O)c1Br)C2(C)C` [compound 127], 19 nM; in that of `CC(C)NC(=O)Cn1ncc(N[C@@H]2C[C@@H]3C[C@H]([C@H]2C)C3(C)C)c(Cl)c1=O` [compound 134], 20 nM. The figure for `C[C@@H]1[C@H]2C[C@@H](C[C@H]1Nc1cnn(CC(=O)NCc3ccncc3)c(=O)c1Cl)C2(C)C` [compound 135] is 4.2 nM; for `C[C@@H]1[C@H]2C[C@@H](C[C@H]1Nc1cnn(CC(=O)NCc3ccnc4ccccc34)c(=O)c1Br)C2(C)C` [compound 167] it is 22 nM. Consider `C[C@@H]1[C@H]2C[C@@H](C[C@H]1Nc1cnn(CC(=O)NC(c3ccccc3)c3ccncc3)c(=O)c1Br)C2(C)C` (some centres unmarked) [compound 169], for which the IC50 was 300 nM. In the case of `Cc1cnccc1CNC(=O)Cn1ncc(N[C@@H]2C[C@@H]3C[C@H]([C@H]2C)C3(C)C)c(Br)c1=O` [compound 170] it was 3.1 nM; in that of `C[C@@H]1[C@H]2C[C@@H](C[C@H]1Nc1cnn(CC(=O)N/C(=N/O)c3ccncc3)c(=O)c1Br)C2(C)C` [compound 172], 310 nM. In the case of `CC(NC(=O)Cn1ncc(N[C@@H]2C[C@@H]3C[C@H]([C@H]2C)C3(C)C)c(Br)c1=O)c1ccc(F)cc1` (some centres unmarked) [compound 178] it was 30 nM.

Consider `C[C@@H]1[C@H]2C[C@@H](C[C@H]1Nc1cnn(CC(=O)NCc3ccc(C(F)(F)F)c(F)c3)c(=O)c1Br)C2(C)C` [compound 183], for which the IC50 turned out to be 230 nM. As to `C[C@@H]1[C@H]2C[C@@H](C[C@H]1Nc1cnn(CC(=O)NC(C#N)c3ccccc3)c(=O)c1Br)C2(C)C` (some centres unmarked) [compound 190], the concentration for half-maximal inhibition (IC50) stood at 54 nM. With `CC(NC(=O)Cn1ncc(N[C@@H]2C[C@@H]3C[C@H]([C@H]2C)C3(C)C)c(Br)c1=O)c1ccc(Cl)cc1` (some centres unmarked) [compound 197], the half-maximal inhibitory concentration (IC50) was 32 nM.

For the compound `C[C@@H]1[C@H]2C[C@@H](C[C@H]1Nc1cnn(CC(=O)NC[C@H]3CCCN3C(=O)OC(C)(C)C)c(=O)c1Br)C2(C)C` [compound 201], the IC50 amounted to 90 nM. With `CONC(=O)Cn1ncc(N[C@@H]2C[C@@H]3C[C@H]([C@H]2C)C3(C)C)c(Br)c1=O` [compound 202], the IC50 amounted to 140 nM. Take `C[C@@H]1[C@H]2C[C@@H](C[C@H]1Nc1cnn(CC(=O)NCc3ccc(O)cc3)c(=O)c1Br)C2(C)C` [compound 205]: the half-maximal inhibitory concentration (IC50) worked out at 58 nM. The figure for `C[C@@H]1[C@H]2C[C@@H](C[C@H]1Nc1cnn(CC(=O)NCC3CCCCC3)c(=O)c1Br)C2(C)C` [compound 208] is 84 nM. The figure for `CC(C)CNC(=O)Cn1ncc(N[C@@H]2C[C@@H]3C[C@H]([C@H]2C)C3(C)C)c(Br)c1=O` [compound 209] is 42 nM; for `Cc1noc(C)c1CNC(=O)Cn1ncc(N[C@@H]2C[C@@H]3C[C@H]([C@H]2C)C3(C)C)c(Br)c1=O` [compound 212] it is 30 nM; for `C[C@@H]1[C@H]2C[C@@H](C[C@H]1Nc1cnn(CC(=O)NCc3ccnc(C#N)c3)c(=O)c1Br)C2(C)C` [compound 219] it is 31 nM. For the compound `CC(NC(=O)Cn1ncc(NC2CC3CC(C2C)C3(C)C)c(Br)c1=O)c1ccnnc1` (centres unmarked) [compound 220], the IC50 came out at 4.2 nM.

On to `C[C@@H]1[C@H]2C[C@@H](C[C@H]1Nc1cnn(CC(=O)NCc3ccnc(F)c3)c(=O)c1Br)C2(C)C` [compound 222], for which the IC50 stood at 4.3 nM. As for `C[C@@H]1[C@H]2C[C@@H](C[C@H]1Nc1cnn(CC(=O)Nc3nc(-c4ccncc4)cs3)c(=O)c1Cl)C2(C)C` [compound 226], the IC50 amounted to 84 nM. Consider `C[C@@H]1[C@H]2C[C@@H](C[C@H]1Nc1cnn(CC(=O)Nc3cccnc3)c(=O)c1Cl)C2(C)C` [compound 227], for which the IC50 is 38 nM.

In the case of `C[C@@H]1[C@H]2C[C@@H](C[C@H]1Nc1cnn(CC(=O)NCC3CCOCC3)c(=O)c1Cl)C2(C)C` [compound 232], the IC50 worked out at 37 nM. In the case of `C[C@@H]1[C@H]2C[C@@H](C[C@H]1Nc1cnn(CC(=O)NCc3ccccc3N(C)C)c(=O)c1Cl)C2(C)C` [compound 247] it was 32 nM. For the compound `C[C@@H]1[C@H]2C[C@@H](C[C@H]1Nc1cnn(CC(=O)NCc3ccc(NS(C)(=O)=O)cc3)c(=O)c1Cl)C2(C)C` [compound 252], the IC50 amounted to 130 nM. For `C[C@@H]1[C@H]2C[C@@H](C[C@H]1Nc1cnn(CC(=O)NC(CCO)c3ccncc3)c(=O)c1Cl)C2(C)C` (some centres unmarked) [compound 253], the 50% inhibitory concentration (IC50) is 36 nM. Consider `C[C@@H]1[C@H]2C[C@@H](C[C@H]1Nc1cnn(CC(=O)NCc3ccnc(C#N)c3)c(=O)c1Cl)C2(C)C` [compound 254], for which the IC50 came to 27 nM. As to `CC(NC(=O)Cn1ncc(N[C@@H]2C[C@@H]3C[C@H]([C@H]2C)C3(C)C)c(Cl)c1=O)c1ccnc(F)c1` (some centres unmarked) [compound 265], the IC50 came out at 3.9 nM.
